# From paper PMC6520686, “Activation Studies of the γ-Carbonic Anhydrases from the Antarctic Marine Bacteria Pseudoalteromonas haloplanktis and Colwellia psychrerythraea with Amino Acids and Amines” (Marine Drugs, 2019)
# Tests used:
# PhaCA = test system: T1, PhaCA; assay: stopped-flow CO2 hydration assay; type: biochemical, Pseudoalteromonas haloplanktis; settings: activation constant (activator); CO2 substrate; TRIS pH 8.3, 0.1 M NaClO4, 25 °C; 15 min pre-incubation
# T1 construct: purified recombinant gamma-class enzyme
# Text: stopped-flow CO2 hydration assay on PhaCA
# CpsCA = test system: T2, CpsCA; assay: stopped-flow CO2 hydration assay; type: biochemical, Colwellia psychrerythraea; settings: activation constant (activator); CO2 substrate; TRIS pH 8.3, 0.1 M NaClO4, 25 °C; 15 min pre-incubation
# T2 construct: purified recombinant gamma-class enzyme
# Text: stopped-flow CO2 hydration assay on CpsCA
SMILES,KA (μM) * / PhaCA ^b (PhaCA),KA (μM) * / CpsCA ^b (CpsCA)
"N[C@H](Cc1ccccc1)C(=O)O [compound 4, D-Phe]",3.19 µM,15.4 µM
"N[C@@H](Cc1ccc(O)c(O)c1)C(=O)O [compound 5, L-DOPA]",1.08 µM,4.79 µM
"N[C@H](Cc1ccc(O)c(O)c1)C(=O)O [compound 6, D-DOPA]",0.72 µM,11.2 µM
"N[C@@H](Cc1c[nH]c2ccccc12)C(=O)O [compound 7, L-Trp]",7.12 µM,21.3 µM
"N[C@@H](Cc1ccc(O)cc1)C(=O)O [compound 9, L-Tyr]",1.02 µM,19.5 µM
"N[C@H](Cc1ccc(O)cc1)C(=O)O [compound 10, D-Tyr]",7.35 µM,18.4 µM
"Nc1ccc(C[C@H](N)C(=O)O)cc1 [compound 11, 4-H2N-L-Phe]",3.27 µM,17.2 µM
"NCCc1c[nH]cn1 [compound 12, Histamine]",6.48 µM,20.6 µM
"NCCc1ccc(O)c(O)c1 [compound 13, Dopamine]",8.70 µM,
"NCc1ccccn1 [compound 15, 2-Pyridyl-methylamine]",2.39 µM,21.5 µM
"N[C@H](CCC(=O)O)C(=O)O [compound 23, D-Glu]",,12.0 µM
